Measured values reported in patent publication US20130065227A1, “METHODS OF INCREASING MACROPINOCYTOSIS IN CANCER CELLS” (priority 2010, published 2013).

Key:
[1] = tested on: Hs27; experiment: Stimulation of macropinocytosis (dextran uptake); format: cell-based, human; conditions: Hs27; Non-cancer, skin fibroblasts
Experimental: (Panel A) DU145 cells were treated with 10 μM tAS1411 or 10 μM tCRO or no oligonucleotide in complete DMEM medium at 37° C. for the time indicated. After treatment, cell medium was changed for fresh complete medium containing 0.2 mg/ml dextran-10K labeled with Alexa Fluor 488, and cells were incubated for 30 min at 37° C. After incubation, cells were harvested and analyzed by flow cytometry to determine dextran uptake. (Panel B) The same experiment was performed using Hs27 cells. (Panel C) DU145 cells were treated with 10 μM tAS1411 or 10 μM tCRO or no oligonucleotide in complete DMEM medium at 37° C. for 48 h. […]
AS1411 causes a change in cancer cell morphology that is characterized by vacuolization, irregular nuclei, and swollen cells (Xu et al., 2001, J. Biol. Chem., 276:43221-30). […] To test this idea, DU145 cells were pre-treated for 24 h with tAS1411, then added FL-AS1411 and evaluated uptake after an additional 2 h using flow cytometry. […] This idea is not necessarily inconsistent with the time course data shown in FIG. 1A because the fluorescence signal may decrease over time for a number of reasons, including exocytosis of the ligand and fluorescence quenching due to protein binding or environmental factors (the fluorophore used for flow cytometry is particularly sensitive to acidic environments). […]

[2] = tested on: MDA-MB-231; experiment: Uptake of AS1411 by macropinocytosis (MP); format: cell-based; conditions: MDA-MB-231; Cancer, breast
Text: (§1) There was little effect of amiloride treatment on uptake of FL-CRO in either DU145 cancer cells or non-malignant Hs27 cells (FIG. 9B). […] These studies also confirmed the previous results that there was higher overall uptake of FL-AS1411 in Hs27 cells than in DU145 cells.
(§2) It has recently been discovered that AS1411 can stimulate macropinocytosis (MP) in cancer cells and this finding was verified by several different methods and in multiple cancer cell lines (Table 1).

[3] = tested on: MCF7; experiment: Uptake of AS1411 by macropinocytosis (MP); format: cell-based; conditions: MCF7; Cancer, breast
Text: as §1, §2

Q: How did the “Stimulate MP?” value [1] turn out when “5′-d(GGTGGTGGTGGTTGTGGTGGTGGTGG) [AS1411]” was run?
A: No

Q: What about the “Update by MP?” value [2] of the same substance?
A: Yes

Q: What about the “Update by MP?” value [3] of the same substance?
A: Yes
